Experiment: relative permittivity at various frequencies (dimensionless)
Settings: 101.3 kPa, Liquid, Frequency=1 MHz, Coaxial cylinder capacitor

CC#N [acetonitrile]
Settings | relative permittivity
288.15 K | 37.52
293.15 K | 36.62
298.15 K | 35.88
303.15 K | 35.15
308.15 K | 34.45
313.15 K | 33.75
318.15 K | 33.01
323.15 K | 32.36
328.15 K | 31.62
333.15 K | 31.05
